PubChem BioAssay AID1963962 (Molecular Pharmacology Branch, DTP, NCI, 2024)

System: 967376-340-R-J2-PDC multicell spheroid viability
Experiment: Anticancer human tumor 967376-340-R-J2-PDC patient-derived colon adenocarcinoma cell line growth inhibition [PI3K]
Settings: for IC50: curve of first compound; for viability, T/C: stronger effect = lower value
Summary of the method: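 Combination activity was assessed by viability in multicellular tumor spheroids carrying HUVEC and MSC components. Agents were tested with PI3K inhibitors from a Cmax-based top dose (or 10 microM) downward in half-log increments.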

[1] = second compound 0.00316 µM, first compound 0.0316 µM
[2] = second compound 0.00316 µM, first compound 0.1 µM
[3] = second compound 0.00316 µM, first compound 0.316 µM
[4] = second compound 0.00316 µM, first compound 1 µM
[5] = second compound 0.00316 µM, first compound 3.16 µM
[6] = second compound 0.00316 µM, first compound 10 µM
[7] = second compound 0.01 µM, first compound 0.0316 µM
[8] = second compound 0.01 µM, first compound 0.1 µM
[9] = second compound 0.01 µM, first compound 0.316 µM
[10] = second compound 0.01 µM, first compound 1 µM
[11] = second compound 0.01 µM, first compound 3.16 µM
[12] = second compound 0.01 µM, first compound 10 µM
[13] = second compound 0.0316 µM, first compound 0.0316 µM
[14] = second compound 0.0316 µM, first compound 0.1 µM
[15] = second compound 0.0316 µM, first compound 0.316 µM
[16] = second compound 0.0316 µM, first compound 1 µM
[17] = second compound 0.0316 µM, first compound 3.16 µM
[18] = second compound 0.0316 µM, first compound 10 µM
[19] = second compound 0.1 µM, first compound 0.0316 µM
[20] = second compound 0.1 µM, first compound 0.1 µM
[21] = second compound 0.1 µM, first compound 0.316 µM
[22] = second compound 0.1 µM, first compound 1 µM
[23] = second compound 0.1 µM, first compound 3.16 µM
[24] = second compound 0.1 µM, first compound 10 µM
[25] = second compound 0.316 µM, first compound 0.0316 µM
[26] = second compound 0.316 µM, first compound 0.1 µM
[27] = second compound 0.316 µM, first compound 0.316 µM
[28] = second compound 0.316 µM, first compound 1 µM
[29] = second compound 0.316 µM, first compound 3.16 µM
[30] = second compound 0.316 µM, first compound 10 µM
[31] = second compound 1 µM, first compound 0.0316 µM
[32] = second compound 1 µM, first compound 0.1 µM
[33] = second compound 1 µM, first compound 0.316 µM
[34] = second compound 1 µM, first compound 1 µM
[35] = second compound 1 µM, first compound 3.16 µM
[36] = second compound 1 µM, first compound 10 µM
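Further: spheroids exposed to agents for 7 days before read-out.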
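Wherever viability, T/C is given: luminescence used as surrogate of cell viability.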

C#Cc1c(F)ccc2cc(O)cc(-c3ncc4c(N5CC6CCC(C5)N6)nc(OCC56CCCN5CC(F)C6)nc4c3F)c12 (centres undefined) + CC(Nc1ccc2c(c1)OCCn1cc(N3C(=O)OCC3C(F)F)nc1-2)C(N)=O
IC50 (second compound 0.00316 µM): > 10 µM | IC50 (second compound 0.01 µM): > 10 µM | IC50 (second compound 0.0316 µM): > 10 µM | IC50 (second compound 0.1 µM): > 10 µM | IC50 (second compound 0.316 µM): > 10 µM | IC50 (second compound 1 µM): 2.26 µM | viability, T/C [1]: 115% | viability, T/C [2]: 99.1% | viability, T/C [3]: 72.3% | viability, T/C [4]: 68.5% | viability, T/C [5]: 94.5% | viability, T/C [6]: 65.7% | viability, T/C [7]: 81.8% | viability, T/C [8]: 86% | viability, T/C [9]: 78.7% | viability, T/C [10]: 87.5% | viability, T/C [11]: 97.7% | viability, T/C [12]: 59.6% | viability, T/C [13]: 78.5% | viability, T/C [14]: 105% | viability, T/C [15]: 71.6% | viability, T/C [16]: 62.3% | viability, T/C [17]: 98.7% | viability, T/C [18]: 56.6% | viability, T/C [19]: 79.7% | viability, T/C [20]: 82% | viability, T/C [21]: 86.6% | viability, T/C [22]: 70.7% | viability, T/C [23]: 62% | viability, T/C [24]: 58.6% | viability, T/C [25]: 55.1% | viability, T/C [26]: 73.9% | viability, T/C [27]: 63.8% | viability, T/C [28]: 60.7% | viability, T/C [29]: 67.6% | viability, T/C [30]: 45.5% | viability, T/C [31]: 62.7% | viability, T/C [32]: 58.6% | viability, T/C [33]: 57.4% | viability, T/C [34]: 56.3% | viability, T/C [35]: 47.8% | viability, T/C [36]: 32.9%

CC1(C)CCC(Nc2ncc(C(F)(F)F)c(-c3c[nH]c4c(P(C)(C)=O)c(C#N)ccc34)n2)CN1 (centres undefined) + CC(Nc1ccc2c(c1)OCCn1cc(N3C(=O)OCC3C(F)F)nc1-2)C(N)=O
IC50 (second compound 0.00316 µM): 6.69 µM | IC50 (second compound 0.01 µM): > 10 µM | IC50 (second compound 0.0316 µM): 6.64 µM | IC50 (second compound 0.1 µM): 2.27 µM | IC50 (second compound 0.316 µM): 3.65 µM | IC50 (second compound 1 µM): 0.277 µM | viability, T/C [1]: 92.7% | viability, T/C [2]: 69.1% | viability, T/C [3]: 68% | viability, T/C [4]: 64.7% | viability, T/C [5]: 57.6% | viability, T/C [6]: 44.3% | viability, T/C [7]: 79% | viability, T/C [8]: 88.1% | viability, T/C [9]: 64.8% | viability, T/C [10]: 53.2% | viability, T/C [11]: 59.6% | viability, T/C [12]: 49% | viability, T/C [13]: 58.4% | viability, T/C [14]: 76.8% | viability, T/C [15]: 63.3% | viability, T/C [16]: 66.2% | viability, T/C [17]: 54.1% | viability, T/C [18]: 46.7% | viability, T/C [19]: 58.5% | viability, T/C [20]: 74.1% | viability, T/C [21]: 69.7% | viability, T/C [22]: 54% | viability, T/C [23]: 48.1% | viability, T/C [24]: 25.6% | viability, T/C [25]: 56.3% | viability, T/C [26]: 67.3% | viability, T/C [27]: 56.9% | viability, T/C [28]: 52.9% | viability, T/C [29]: 54.9% | viability, T/C [30]: 24.8% | viability, T/C [31]: 53.6% | viability, T/C [32]: 53.4% | viability, T/C [33]: 43.5% | viability, T/C [34]: 50.7% | viability, T/C [35]: 36.1% | viability, T/C [36]: 24.6%
